Test results as given in PubChem BioAssay AID248 (DTP/NCI, 2004).
Where “and” joins values, the source holds several entries; their conditions need not be identical. Identical values can stand only once. Toxic doses and inconclusive results are not listed. Cut-off read from the data, not from the text of the source: active = T/C of 150% or more; inactive = T/C below 125%.

Test system: L1210 leukemia ip in BDF1 mice, survival T/C
Assay: NCI In Vivo Anticancer Drug Screen. Data for tumor model L1210 Leukemia (intraperitoneal) in B6D2F1 (BDF1) mice
Details: endpoint: mean survival time, higher = longer survival
Procedure, shortened: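 In this screen, tumor-bearing mice given compound are compared to those given vehicle, and their survival values are reported as a treated-to-control quotient.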

[1] = dose: 25.0 mg/kg/injection, schedule: Q01DX009 (ip), vehicle: saline
[2] = dose: 50.0 mg/kg/injection, schedule: Q01DX009 (ip), vehicle: saline
[3] = dose: 100.0 mg/kg/injection, schedule: Q01DX001 (ip), vehicle: carboxymethylcellulose (CMC)
[4] = dose: 200.0 mg/kg/injection, schedule: Q01DX001 (ip), vehicle: carboxymethylcellulose (CMC)
[5] = dose: 400.0 mg/kg/injection, schedule: Q01DX001 (ip), vehicle: carboxymethylcellulose (CMC)
[6] = dose: 100.0 mg/kg/injection, schedule: Q01DX001 (ip), vehicle: saline
[7] = dose: 25.0 mg/kg/injection, schedule: Q01DX009 (ip), vehicle: saline with Tween-80
[8] = dose: 25.0 mg/kg/injection, schedule: Q04DX003 (ip), vehicle: saline with Tween-80
[9] = dose: 50.0 mg/kg/injection, schedule: Q01DX009 (ip), vehicle: saline with Tween-80
[10] = dose: 50.0 mg/kg/injection, schedule: Q04DX003 (ip), vehicle: saline with Tween-80
[11] = dose: 100.0 mg/kg/injection, schedule: Q01DX009 (ip), vehicle: saline with Tween-80
[12] = dose: 100.0 mg/kg/injection, schedule: Q04DX003 (ip), vehicle: saline with Tween-80
[13] = dose: 100.0 mg/kg/injection, schedule: Q04DX003 (ip), vehicle: Klucel (hydroxypropylcellulose) (HPC)
[14] = dose: 200.0 mg/kg/injection, schedule: Q04DX003 (ip), vehicle: Klucel (hydroxypropylcellulose) (HPC)
[15] = dose: 400.0 mg/kg/injection, schedule: Q04DX003 (ip), vehicle: Klucel (hydroxypropylcellulose) (HPC)
[16] = dose: 200.0 mg/kg/injection, schedule: Q01DX009 (ip), vehicle: saline with Tween-80
[17] = dose: 200.0 mg/kg/injection, schedule: Q04DX003 (ip), vehicle: saline with Tween-80
[18] = dose: 400.0 mg/kg/injection, schedule: Q04DX003 (ip), vehicle: saline with Tween-80
[19] = dose: 400.0 mg/kg/injection, schedule: Q01DX009 (ip), vehicle: saline with Tween-80
[20] = dose: 75.0 mg/kg/injection, schedule: Q01DX001 (ip), vehicle: saline
[21] = dose: 150.0 mg/kg/injection, schedule: Q01DX001 (ip), vehicle: saline
[22] = dose: 12.5 mg/kg/injection, schedule: Q04DX003 (ip), vehicle: saline with Tween-80
[23] = dose: 200.0 mg/kg/injection, schedule: Q01DX001 (ip), vehicle: saline
[24] = dose: 400.0 mg/kg/injection, schedule: Q01DX001 (ip), vehicle: saline
[25] = dose: 100.0 mg/kg/injection, schedule: Q01DX009 (ip), vehicle: Klucel (hydroxypropylcellulose) (HPC)
[26] = dose: 200.0 mg/kg/injection, schedule: Q01DX009 (ip), vehicle: Klucel (hydroxypropylcellulose) (HPC)
[27] = dose: 400.0 mg/kg/injection, schedule: Q01DX009 (ip), vehicle: Klucel (hydroxypropylcellulose) (HPC)

Measured: T/C

CCN(CC)CCc1ccccn1
inactive: dose: 12.5 mg/kg/injection, schedule: Q01DX009 (ip), vehicle: saline 98 % of control | [1] 100 % of control | dose: 25.0 mg/kg/injection, schedule: Q04DX003 (ip), vehicle: saline 106 % of control | [2] 100 % of control | dose: 50.0 mg/kg/injection, schedule: Q04DX003 (ip), vehicle: saline 103 % of control

O=c1cc[nH]c2c(Cl)cccc12
inactive: dose: 50.0 mg/kg/injection, schedule: Q01DX001 (ip), vehicle: carboxymethylcellulose (CMC) 109 % of control | [3] 109 % of control | [4] 114 % of control | [5] 110 % of control

CC[n+]1cccc2ccccc21
inactive: [6] 97 % of control

CN1CCN(C(=O)Cc2c[nH]c3ccccc23)CC1
inactive: dose: 6.25 mg/kg/injection, schedule: Q01DX009 (ip), vehicle: saline with Tween-80 104 % of control | dose: 12.5 mg/kg/injection, schedule: Q01DX009 (ip), vehicle: saline with Tween-80 100 % of control | [7] 120 % of control and 91 % of control | [8] 100 % of control | [9] 95 % of control and 117 % of control | [10] 102 % of control | [11] 115 % of control and 88 % of control | [12] 103 % of control and 108 % of control

Cn1c(=O)[nH]cc(C(=O)O)c1=O
inactive: [13] 91 % of control | [14] 92 % of control | [15] 91 % of control

S=C(S)N1CCC(CC2CCN(C(=S)S)CC2)CC1
inactive: [11] 98 % of control | [12] 102 % of control | [16] 93 % of control | [17] 96 % of control | [18] 86 % of control

COc1cc(/C=N/NC(=O)c2cccs2)cc(OC)c1OC
inactive: [11] 98 % of control | [16] 94 % of control | [19] 98 % of control

Cc1ccc2nc(N=C(N)N)[nH]c2c1
inactive: [20] 93 % of control | [21] 94 % of control

Cc1cc([N+](=O)[O-])c2ccccc2[n+]1[O-]
inactive: [7] 96 % of control

O=c1ccnc([Se])[nH]1
inactive: [22] 99 % of control | [8] 105 % of control | [10] 101 % of control | [12] 92 % of control | [17] 111 % of control | [18] 101 % of control

O=C1OC(=O)c2ccc([N+](=O)[O-])c3c([N+](=O)[O-])ccc1c23
inactive: [11] 88 % of control | [16] 95 % of control | [19] 91 % of control

COCC1OC(Nc2ccccc2)C(OC)C(OC)C1OC (stereo unspecified)
inactive: [12] 89 % of control | [17] 94 % of control | [18] 89 % of control

CCOc1ccc(C(=O)Nc2ccc(C3=NCCN3)cc2)cc1C(=O)Nc1ccc(C2=NCCN2)cc1
inactive: dose: 30.0 mg/kg/injection, schedule: Q01DX Z (oral), vehicle: saline 93 % of control | dose: 60.0 mg/kg/injection, schedule: Q01DX Z (oral), vehicle: saline 91 % of control | dose: 62.5 mg/kg/injection, schedule: Q01DX010 (oral), vehicle: saline 107 % of control | dose: 120.0 mg/kg/injection, schedule: Q01DX Z (oral), vehicle: saline 103 % of control | dose: 125.0 mg/kg/injection, schedule: Q01DX010 (oral), vehicle: saline 112 % of control | dose: 240.0 mg/kg/injection, schedule: Q01DX Z (oral), vehicle: saline 92 % of control | dose: 250.0 mg/kg/injection, schedule: Q01DX010 (oral), vehicle: saline 112 % of control | dose: 500.0 mg/kg/injection, schedule: Q01DX010 (oral), vehicle: saline 106 % of control

COC1OC(CO)C(O)C(NC(=O)NCCCl)C1O (stereo unspecified)
inactive: [6] 113 % of control | [23] 111 % of control | [24] 103 % of control

OCCN1CCNCC1
inactive: [6] 105 % of control | [23] 105 % of control | [24] 100 % of control

O=C(O)Cn1c(=O)ccc2ccccc21
inactive: dose: 100.0 mg/kg/injection, schedule: Q04DX002 (ip), vehicle: saline with Tween-80 91 % of control | dose: 200.0 mg/kg/injection, schedule: Q04DX002 (ip), vehicle: saline with Tween-80 95 % of control | dose: 400.0 mg/kg/injection, schedule: Q04DX002 (ip), vehicle: saline with Tween-80 95 % of control

COc1ccc(C(C#N)CC(=O)c2ccc(OC)c(OCc3ccccc3)c2)cc1OC (stereo unspecified)
inactive: [1] 96 % of control | [2] 102 % of control | dose: 100.0 mg/kg/injection, schedule: Q01DX009 (ip), vehicle: saline 101 % of control | dose: 200.0 mg/kg/injection, schedule: Q01DX009 (ip), vehicle: saline 101 % of control

Cc1cccc(C(=O)C=C(C(F)(F)F)C(F)(F)F)c1
inactive: [22] 103 % of control | [8] 111 % of control | [10] 102 % of control and 118 % of control

CCCCOc1ccc(/C=N/NC(=O)CNC(=O)Nc2cccc(C(F)(F)F)c2)cc1
inactive: dose: 100.0 mg/kg/injection, schedule: Q01DX009 (ip), vehicle: gum acacia 86 % of control | dose: 200.0 mg/kg/injection, schedule: Q01DX009 (ip), vehicle: gum acacia 93 % of control | dose: 400.0 mg/kg/injection, schedule: Q01DX009 (ip), vehicle: gum acacia 96 % of control

O=Nc1ccc(SCC(=O)NNC(=O)CSc2ccc(N=O)cc2[N+](=O)[O-])cc1
inactive: [12] 93 % of control

COc1ccc(NC(=O)COc2ccc(Cl)cc2Cl)cc1
inactive: dose: 100.0 mg/kg/injection, schedule: Q04DX002 (ip), vehicle: Klucel (hydroxypropylcellulose) (HPC) 108 % of control | dose: 200.0 mg/kg/injection, schedule: Q04DX002 (ip), vehicle: Klucel (hydroxypropylcellulose) (HPC) 92 % of control | dose: 400.0 mg/kg/injection, schedule: Q04DX002 (ip), vehicle: Klucel (hydroxypropylcellulose) (HPC) 94 % of control

O=[N+]([O-])c1ccc(C[Se]c2ncnc3c(C4OC(CO)C(O)C4O)[nH]nc23)cc1 (stereo unspecified)
inactive: dose: 12.5 mg/kg/injection, schedule: Q01DX005 (ip), vehicle: saline 98 % of control | dose: 25.0 mg/kg/injection, schedule: Q01DX005 (ip), vehicle: saline 104 % of control | dose: 50.0 mg/kg/injection, schedule: Q01DX005 (ip), vehicle: saline 93 % of control

CN(C)C1c2cc(Br)ccc2-c2ccc([N+](=O)[O-])cc21 (stereo unspecified)
inactive: [3] 94 % of control | [4] 103 % of control | [5] 100 % of control

CCCCCCc1nc2nc(Cl)c(Cl)nc2[nH]1
inactive: [7] 93 % of control | [8] 105 % of control | [9] 96 % of control | [10] 98 % of control | [11] 106 % of control | [12] 95 % of control and 103 % of control | dose: 150.0 mg/kg/injection, schedule: Q01DX009 (ip), vehicle: saline with Tween-80 98 % of control

O=C(OC1C=CCC1)c1ccc([N+](=O)[O-])cc1 (stereo unspecified)
inactive: [13] 97 % of control | [14] 93 % of control | [15] 93 % of control

COC(OC)c1cc(=O)[nH]cn1
inactive: [25] 94 % of control | [26] 106 % of control | [27] 107 % of control

BrC1C(Br)C(Br)C2OC2C1Br (stereo unspecified)
inactive: [25] 96 % of control | [26] 102 % of control | [27] 98 % of control

Cc1ccc(N2C=Nc3ccc(C)cc3C2)cc1
inactive: [25] 92 % of control | dose: 100.0 mg/kg/injection, schedule: Q04DX003 (ip), vehicle: other 107 % of control | [26] 104 % of control | dose: 200.0 mg/kg/injection, schedule: Q04DX003 (ip), vehicle: other 90 % of control

Cc1cnc(C(=O)O)c(N)n1
inactive: [20] 105 % of control | [21] 93 % of control

CC(C)N(C(=O)Nc1ccc(Cl)cc1)C1CCCCC1
inactive: dose: 87.5 mg/kg/injection, schedule: Q04DX003 (ip), vehicle: carboxymethylcellulose (CMC) 101 % of control | dose: 175.0 mg/kg/injection, schedule: Q04DX003 (ip), vehicle: carboxymethylcellulose (CMC) 96 % of control | dose: 350.0 mg/kg/injection, schedule: Q04DX003 (ip), vehicle: carboxymethylcellulose (CMC) 95 % of control
